For assay [1], the target named is Lysosomal alpha-glucosidase (Rattus norvegicus) (UniProt Q6P7A9). The experiment in a line: Inhibition of rat intestinal alpha-glucosidase maltase using maltose as substrate at 10 mg/mL preincubated for 10 mins prior substrate addition measured after 40 mins by spectrophotometry.
Assay [2] is described as follows: Inhibition of Baker's yeast Alpha-glucosidase-1 using p-nitrophenyl-alpha-D-glucopyranoside as substrate preincubated for 10 mins prior substrate addition measured after 20 mins by spectrophotometry. Details: species or system Saccharomyces cerevisiae.
Assay [3] concerns the target Sucrase-isomaltase, intestinal (Rattus norvegicus) (UniProt P23739). The experiment in a line: Inhibition of rat intestinal alpha-glucosidase sucrase using sucrose as substrate at 10 mg/mL preincubated for 10 mins prior substrate addition measured after 40 mins by spectrophotometry.
The target of another assay is T1, Beta-galactosidase (Homo sapiens, UniProt P16278).
T1 sequence (P16278 whole entry): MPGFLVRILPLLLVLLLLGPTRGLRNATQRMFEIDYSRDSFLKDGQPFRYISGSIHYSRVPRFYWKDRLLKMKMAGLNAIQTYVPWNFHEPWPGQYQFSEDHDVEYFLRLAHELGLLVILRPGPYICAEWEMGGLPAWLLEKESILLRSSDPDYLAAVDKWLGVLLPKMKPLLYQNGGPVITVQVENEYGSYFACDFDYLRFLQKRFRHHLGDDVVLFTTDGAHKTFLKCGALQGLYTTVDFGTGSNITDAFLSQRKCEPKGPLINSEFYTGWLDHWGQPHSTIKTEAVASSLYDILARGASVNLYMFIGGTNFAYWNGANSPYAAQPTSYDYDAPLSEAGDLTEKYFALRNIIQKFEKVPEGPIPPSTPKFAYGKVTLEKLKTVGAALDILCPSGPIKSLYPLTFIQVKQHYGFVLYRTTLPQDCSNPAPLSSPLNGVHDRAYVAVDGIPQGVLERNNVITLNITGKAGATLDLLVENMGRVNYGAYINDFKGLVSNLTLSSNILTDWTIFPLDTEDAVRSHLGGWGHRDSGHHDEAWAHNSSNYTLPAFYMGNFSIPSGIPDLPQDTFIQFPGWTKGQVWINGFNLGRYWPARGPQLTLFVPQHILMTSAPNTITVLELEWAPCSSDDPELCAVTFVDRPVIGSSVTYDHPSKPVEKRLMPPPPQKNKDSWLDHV
The experiment in a line: Inhibition of beta-galactosidase.

In assay [4] the test system is Saccharomyces cerevisiae. The experiment in a line: Inhibition of Baker's yeast Alpha-glucosidase-1 using p-nitrophenyl-alpha-D-glucopyranoside as substrate at 10 mg/mL preincubated for 10 mins prior substrate addition measured after 20 mins by spectrophotometry.
The subject of assay [5] is Saccharomyces cerevisiae. The experiment in a line: Ratio of acarbose IC50 to compound IC50 for Baker's yeast Alpha-glucosidase-1.

pIC50: −log10 of the molar value.

The source of these data is ChEMBL document CHEMBL1949549, “Concise synthesis of (+)-conduritol F and inositol analogues from naturally available (+)-proto-quercitol and their glucosidase inhibitory activity” (Bioorg Med Chem Lett, 2012).

In general, inhibition refers to the share of the control response that was lost under treatment. Read a low inhibition as little suppression. Usually pIC50 stands for the IC50 on a negative log10 scale, so that one unit is a factor of ten. The low end stands for a high IC50, the high end for a low IC50.

Sequence of Sucrase-isomaltase, intestinal (Rattus norvegicus) (P23739 1-1013 limits assumed): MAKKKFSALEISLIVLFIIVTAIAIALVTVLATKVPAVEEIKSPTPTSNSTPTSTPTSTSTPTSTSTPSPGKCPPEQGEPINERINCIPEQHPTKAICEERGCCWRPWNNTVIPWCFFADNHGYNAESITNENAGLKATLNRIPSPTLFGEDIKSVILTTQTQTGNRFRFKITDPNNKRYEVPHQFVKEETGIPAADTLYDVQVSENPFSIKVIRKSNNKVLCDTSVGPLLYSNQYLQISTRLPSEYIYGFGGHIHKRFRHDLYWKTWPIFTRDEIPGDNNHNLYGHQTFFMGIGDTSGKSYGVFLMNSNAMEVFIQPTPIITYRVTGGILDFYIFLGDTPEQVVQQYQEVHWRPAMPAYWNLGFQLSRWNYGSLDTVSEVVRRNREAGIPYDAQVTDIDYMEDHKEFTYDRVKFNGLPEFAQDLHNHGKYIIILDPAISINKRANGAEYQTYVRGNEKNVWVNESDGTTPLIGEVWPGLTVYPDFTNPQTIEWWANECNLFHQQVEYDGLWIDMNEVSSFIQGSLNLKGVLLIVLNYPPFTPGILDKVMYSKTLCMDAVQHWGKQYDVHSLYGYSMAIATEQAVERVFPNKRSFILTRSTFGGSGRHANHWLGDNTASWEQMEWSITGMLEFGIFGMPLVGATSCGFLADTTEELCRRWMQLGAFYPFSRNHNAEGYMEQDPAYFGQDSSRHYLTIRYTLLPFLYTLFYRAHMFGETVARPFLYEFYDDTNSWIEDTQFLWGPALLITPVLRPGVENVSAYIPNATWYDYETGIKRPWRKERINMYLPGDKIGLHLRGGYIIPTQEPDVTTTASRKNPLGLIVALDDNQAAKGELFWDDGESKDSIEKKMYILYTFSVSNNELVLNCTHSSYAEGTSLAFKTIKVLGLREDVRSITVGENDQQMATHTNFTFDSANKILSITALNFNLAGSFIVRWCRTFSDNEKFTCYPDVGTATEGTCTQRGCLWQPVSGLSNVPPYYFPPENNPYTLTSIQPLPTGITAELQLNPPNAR
Sequence of Sucrase-isomaltase, intestinal (Rattus norvegicus) (P23739 1014-1841 limits assumed): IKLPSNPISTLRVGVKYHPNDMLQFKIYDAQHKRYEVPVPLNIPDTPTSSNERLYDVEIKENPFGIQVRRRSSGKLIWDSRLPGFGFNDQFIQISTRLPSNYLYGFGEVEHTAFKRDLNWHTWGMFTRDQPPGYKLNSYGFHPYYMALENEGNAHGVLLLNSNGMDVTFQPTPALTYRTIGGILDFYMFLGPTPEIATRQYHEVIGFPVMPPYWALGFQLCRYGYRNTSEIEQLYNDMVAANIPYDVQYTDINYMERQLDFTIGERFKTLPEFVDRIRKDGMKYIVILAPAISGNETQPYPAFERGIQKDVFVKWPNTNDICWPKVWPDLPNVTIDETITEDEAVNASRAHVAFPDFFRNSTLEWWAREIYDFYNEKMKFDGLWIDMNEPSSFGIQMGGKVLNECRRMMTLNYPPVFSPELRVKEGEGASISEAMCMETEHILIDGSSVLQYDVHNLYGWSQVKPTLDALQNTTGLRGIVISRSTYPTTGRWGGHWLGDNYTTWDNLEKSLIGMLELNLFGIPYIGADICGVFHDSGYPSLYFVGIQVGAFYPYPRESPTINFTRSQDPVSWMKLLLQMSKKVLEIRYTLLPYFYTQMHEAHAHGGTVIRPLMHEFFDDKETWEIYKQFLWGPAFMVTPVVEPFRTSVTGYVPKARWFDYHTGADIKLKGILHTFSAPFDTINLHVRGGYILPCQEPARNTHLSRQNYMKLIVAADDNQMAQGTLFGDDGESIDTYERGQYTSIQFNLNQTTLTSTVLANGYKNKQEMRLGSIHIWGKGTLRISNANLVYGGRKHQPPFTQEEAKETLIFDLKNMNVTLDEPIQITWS
Sequence of Lysosomal alpha-glucosidase (Rattus norvegicus) (Q6P7A9 whole entry): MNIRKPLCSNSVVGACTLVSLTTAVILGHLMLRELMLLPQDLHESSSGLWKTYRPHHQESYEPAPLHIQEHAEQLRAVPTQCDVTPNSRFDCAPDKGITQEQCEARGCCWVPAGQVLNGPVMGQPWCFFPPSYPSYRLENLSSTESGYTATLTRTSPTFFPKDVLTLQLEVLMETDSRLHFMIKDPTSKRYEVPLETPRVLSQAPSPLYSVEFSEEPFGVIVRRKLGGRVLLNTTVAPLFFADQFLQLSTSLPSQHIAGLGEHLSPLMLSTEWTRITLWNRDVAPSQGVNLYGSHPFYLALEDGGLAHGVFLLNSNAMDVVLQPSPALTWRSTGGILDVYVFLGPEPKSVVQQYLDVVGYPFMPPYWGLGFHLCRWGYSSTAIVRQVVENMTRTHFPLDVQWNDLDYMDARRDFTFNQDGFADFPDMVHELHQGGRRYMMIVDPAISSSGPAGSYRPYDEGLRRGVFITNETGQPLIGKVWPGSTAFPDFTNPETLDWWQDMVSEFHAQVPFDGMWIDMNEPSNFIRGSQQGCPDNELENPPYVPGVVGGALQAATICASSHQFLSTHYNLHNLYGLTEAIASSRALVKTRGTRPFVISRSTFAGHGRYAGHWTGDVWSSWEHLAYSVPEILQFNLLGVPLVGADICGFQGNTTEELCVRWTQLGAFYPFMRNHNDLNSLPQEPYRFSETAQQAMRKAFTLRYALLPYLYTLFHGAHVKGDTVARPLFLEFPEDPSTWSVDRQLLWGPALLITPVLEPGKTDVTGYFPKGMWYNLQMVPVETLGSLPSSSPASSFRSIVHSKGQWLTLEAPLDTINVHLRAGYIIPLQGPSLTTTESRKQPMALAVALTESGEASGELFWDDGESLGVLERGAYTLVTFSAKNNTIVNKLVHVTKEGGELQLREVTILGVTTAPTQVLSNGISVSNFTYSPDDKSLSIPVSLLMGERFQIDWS

For the compound `O[C@H]1[C@H](O)[C@H](O)[C@@H](O)[C@H](O)[C@H]1O`, the inhibition in assay [1] and in assay [3] was less than 30% throughout. This compound had a pIC50 in assay [2] of 2.90.
Consider `O[C@H]1[C@@H](O)[C@@H](O)[C@@H](O)[C@@H](O)[C@@H]1O`, for which the inhibition in assay [1] and in assay [3] was less than 30% in each case. In assay [2], the pIC50 was 3.32.
In the case of `O[C@@H]1[C@@H](O)[C@@H](O)C=C[C@H]1O` (relative stereo), the pIC50 on Beta-galactosidase was 3.22.
Regarding `C[C@H]1O[C@H](O[C@H]2[C@H](O)[C@@H](O)[C@@H](O[C@H]3[C@H](O)[C@@H](O)C(O)O[C@@H]3CO)O[C@@H]2CO)[C@H](O)[C@@H](O)[C@@H]1N[C@H]1C=C(CO)[C@@H](O)[C@H](O)[C@H]1O` (stereo not given in full) [ACARBOSE], in assay [2], the pIC50 is 3.39.
Regarding `O[C@@H]1[C@@H](O)[C@@H](O)C=C[C@H]1O` [listing 1 of 2 here], the pIC50 in assay [2] is 4.06.
Take `OC1[C@@H](O)[C@H](O)C[C@@H](O)[C@@H]1O` (stereo not given in full): the inhibition (in assay [1]; in assay [3]; in the assay on Saccharomyces cerevisiae [4]) was less than 30% in each case.
On to `O[C@@H]1[C@@H](O)[C@@H](O)C=C[C@H]1O` [listing 2 of 2 here], for which the inhibition in assay [1] and in assay [3] was less than 30% each time. The Ratio IC50 with Saccharomyces cerevisiae [5] amounted to 5.
